Target: T1, GltPh (Pyrococcus horikoshii, UniProt O59010)
T1 construct: gene PH1295; WT GltPh, homotrimer, detergent-solubilised (DDM)
T1 sequence (O59010 1-425): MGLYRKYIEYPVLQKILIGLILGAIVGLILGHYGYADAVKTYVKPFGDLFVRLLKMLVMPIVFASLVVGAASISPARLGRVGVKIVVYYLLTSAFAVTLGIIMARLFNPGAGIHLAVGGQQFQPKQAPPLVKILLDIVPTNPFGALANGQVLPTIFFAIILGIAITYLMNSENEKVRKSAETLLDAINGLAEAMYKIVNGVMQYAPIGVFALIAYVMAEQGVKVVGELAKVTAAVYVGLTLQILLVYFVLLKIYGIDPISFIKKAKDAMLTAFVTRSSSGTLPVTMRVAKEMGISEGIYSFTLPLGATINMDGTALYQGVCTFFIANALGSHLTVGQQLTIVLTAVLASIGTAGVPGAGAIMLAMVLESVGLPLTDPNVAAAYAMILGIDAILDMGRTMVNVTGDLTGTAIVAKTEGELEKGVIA
Experiment: STD NMR titration, γ-protons; DDM micelles ([…] in proteoliposomes)
Format: binding

## N[C@@H](CCC(=O)O)C(=O)O [L-glutamate]
  Kd: 414 µM

Reference: paper PMC7536232, “Saturation transfer difference NMR on the integral trimeric membrane transport protein GltPh determines cooperative substrate binding” (Scientific Reports, 2020)
